Read-outs that look alike come from different tables or passages of the source.

We go through two compounds from US8835657B2, “Cyclopentanedione compounds and their use as insecticides, acaricides and/or fungicides” (Bayer CropScience AG, priority 2009, dated 2014).

Common to all, as to format: in vivo
Experiment [1] relates to green peach aphid (Myzus persicae). Description: Myzus persicae test (MYZUPE spray application). As to conditions: foliar, 144 h, spray on Chinese cabbage leaf disks, after 6 days, read-out: Efficacy % (mortality). As to the method:
Test; (MYZUPE Spray Application)
(§1) • Solvent: 78.0 parts by weight acetone • 1.5 parts by weight dimethylformamide • Emulsifier: 0.5 parts by weight alkylarylpolyglycolether
To produce a suitable preparation of active compound, 1 part by weight of active compound is mixed with the stated amount of solvent and emulsifier, and the concentrate is diluted with emulsifier-containing water to the desired concentration. Chinese cabbage (Brassica pekinesis) leaf-disks infected with all instars of the green peach aphid (Myzus persicae), are sprayed with a preparation of the active ingredient at the desired concentration.
After 6 days mortality in % is determined. 100% means that all aphids have been killed; 0% means that none of the aphids have been killed.

Experiment [2] has as its system mustard beetle larvae (Phaedon cochleariae). Description: Phaedon cochleariae test (PHAECO spray application). As to conditions: foliar, 168 h, spray on Chinese cabbage leaf disks, after 7 days, read-out: Efficacy % (mortality). The procedure:
Test; (PHAECO Spray Application)
• Solvent: 78.0 parts by weight of acetone • 1.5 parts by weight of dimethylformamide • Emulsifier: 0.5 parts by weight of alkylaryl polyglycolether
To produce a suitable preparation of active compound, 1 part by weight of active compound is mixed with the stated amount of solvent and emulsifier, and the concentrate is diluted with emulsifier-containing water to the desired concentration. Chinese cabbage (Brassica pekinesis) leaf-disks are sprayed with a preparation of the active ingredient of the desired concentration. Once dry, the leaf disks are infested with mustard beetle larvae (Phaedon cochleariae).
After 7 days mortality in % is determined. 100% means that all beetle larvae have been killed and 0% means that none of the beetle larvae have been killed.

Experiment [3] deals with fall armyworm larvae (Spodoptera frugiperda). Description: Spodoptera frugiperda test (SPODFR spray application). As to conditions: 168 h, spray on maize leaf sections, after 7 days, read-out: Efficacy % (mortality).
Excerpt: Test (SPODFR Spray Application)
as §1
To produce a suitable preparation of the active compound, 1 part by weight of active compound is mixed with the stated amount of solvent and emulsifier, and the concentrate is dilutes with emulsifier-containing water to the desired concentration. Maize (Zea mais) leaf sections are sprayed with a preparation of the active ingredient of the desired concentration. Once dry, the leaf sections are infested with fall armyworm larvae (Spodoptera frugiperda).
After 7 days mortality in % is determined. 100% means that all caterpillars have been killed and 0% means that none of the caterpillars have been killed.

In experiment [4] the test system is two spotted spidermite (Tetranychus urticae). Description: Tetranychus urticae test; OP-resistant (TETRUR spray application). The settings on record: 144 h, read-out: Efficacy % (mortality). The procedure: Test; OP-Resistant (TETRUR Spray Application)
as §1
To produce a suitable preparation of active compound, 1 part by weight of active compound is mixed with the stated amount of solvent and emulsifier, and the concentrate is diluted with emulsifier-containing water to the desired concentration. French beans (Phaseolus vulgaris) which are heavily infested with all stages of the two spotted spidermite (Tetranychus urticae), are sprayed with a preparation of the active ingredient at the desired concentration.
After 6 days mortality in % is determined. 100% means that all spider mites have been killed and 0% means that none of the spider mites have been killed.

The next experiment concerns Meloidogyne incognita. Description: Meloidogyne test (MELGIN). The settings on record: 20 ppm, sand with salad seeds, after 14 days. As to the method:
Meloidogyne Test (MELGIN)
• Solvent: 80.0 parts by weight of acetone
To produce a suitable preparation of active compound, 1 part by weight of active compound is mixed with the stated amount of solvent, and the concentrate is diluted with emulsifier-containing water to the desired concentration.
Vessels are filled with sand, a solution of the active ingredient, a suspension containing eggs and larvae of Meloidogyne incognita and salad seeds. The salade seeds germinate and the seedlings grow. Galls develop in the roots.
After 14 days the nematicidal activity is determined on the basis of the percentage of gall formation. 100% means that no galls were found; 0% means that the number of galls found on the roots of the treated plants was equal to that in untreated control plants.

With `CCOC(=O)OC1=C(c2cc(-c3ccc(Cl)cc3)ccc2C)C(=O)C2C3CCC(O3)C12` (stereo not drawn) [Ex No. P 12], the mortality at 500 g/ha in experiment [1] came to 90%; in experiment [2] (500 g/ha) it was 83%; in experiment [3], 100%; in experiment [4], 100%.

For the compound `Cc1ccc(-c2ccc(Cl)cc2)cc1C1=C(O)[C@H]2[C@@H](C1=O)[C@@H]1CC[C@H]2O1` [Ex No. T 1], the mortality at 500 g/ha in experiment [1] came out at 90%; in experiment [3] it was 100%; in experiment [4] (TETRUR, OP-resistant, 500 g/ha, spray on French beans, after 6 days) it was 100%. For the same compound, in the experiment with Meloidogyne incognita, the “Efficacy % (nematicidal activity, gall formation)” value came to 100%. Further, the mortality at 100 g/ha in experiment [2] (100 g/ha) was 83%.
